Non-standard residues stand in square brackets, D forms with d. Hyp = O=C(O)[C@@H]1C[C@@H](O)CN1
Tested on: endothelial cell line EA.hy 926
Test: MTT test (cell metabolic activity / cytotoxicity)
Assay type: cell-based
Details: for cytotoxic effect of peptides (MTT test): EA.h 926 cells incubated with peptide for 1 day and for 7 days, concentration range 10 μM to 10 mM, compared with Control− (medium only), five replicates, average
Procedure: The endothelial cell line EA.hy 926 (ATCC, Manassas, VA, USA) was used. The MTT test was performed using endothelial cells of the EA.hy 926 line. The extracts (2 mg/mL) were incubated in DMEM (Corning) for 48 h at 37 °C. Cells were seeded into a 96-well plate with 1 × 10^4 cells per well and grown under standard conditions (37 °C, 5% CO2 in humid air). The next day, the medium was replaced with extracts. After 24 h of treatment, the culture medium was removed and replaced with the MTT solution (1 mg/mL, Sigma Aldrich, Poznan, Poland) and incubated for 2 h in an incubator. The MTT solution was then decanted and 100 µL of isopropanol (Sigma Aldrich, Poznan, Poland) was added to each well. Absorbance was measured at 570 nm and 650 nm for the reference using a microplate reader (Victor X4 Perkin Elmer, PerkinElmer, Inc. Waltham, MA, USA). Cells cultured for 48 h in DMEM were used as a negative control. As a positive control were used cells incubated for 24 h, followed by the addition of DMSO, which were then cultured for another 24 h. Three samples of each type were tested and the results were presented as a percentage of the negative control with the standard deviation. Statistical significance was assessed using one-way ANOVA analysis of variance. Values for which the value **p < 0.001, ** p < 0.01, *p < 0.05 were considered statistically significant.
All the peptides were also assessed in terms of their cytotoxicity against the endothelial cell line EA.h 926. No cytotoxicity was observed (Figure 6) both for incubating cells in the presence of peptides 1–5 for 1 day (Figure 6a) and for 7 days (Figure 6b). Cells cultured in medium without the addition of any substances or harmful agents were used as the Control^− (K^−), while cells treated with DMSO on the second day of incubation were used as the Control^+ (K^+). The dimethyl sulfoxide (DMSO) was added to a final concentration of 5%. An MTT test was used to assess the cytotoxicity of peptides 1–5. […] The tests were performed in the concentration range of 10 μM and 10 mM.
Figure 6 Results of cell metabolic activity by using 3-(4,5-dimethylthiazol-2-yl)-2,5-diphenyltetrazolium bromide (MTT test) of the endothelial cell line EA.h 926 cultured in the presence of peptides 1–5, panel (a)—cells incubated in the presence of peptides for 1 day, panel (b)—cells incubated in the presence of peptides for 7 days. Cytotoxicity tests were performed in five replicates. The presented results are average values. Statistical significance was assessed using one-way ANOVA analysis of variance. Values for which the value **p < 0.001, ** p < 0.01, *p < 0.05 were considered statistically significant (see Supplementary Materials, Figure S1).
In the final stage of the research, we studied the effects of covalently linked conjugates of peptides 2‒5 with chitosan and alginate (Figure 10) on the endothelial cell line EA.hy 926. Experiments were performed for incubation of cells for 1 day (Figure 10a) and 7 days (Figure 10b) to check the effect of alginate and chitosan conjugates with peptides 2‒5 both in the short and long term, which is important from the point of view of the usefulness of materials used in regenerative medicine. As the Control^‒ (K^‒) were again used cells cultured in the medium without the addition of any substances or any harmful factors, while as the Control^+ (K^+) were used cell cultures killed by adding DMSO on the second day of incubation. DMSO was added to give a 5% final concentration in the culture medium. Unmodified chitosan and calcium alginate were also studied. […] Cell viability relative to the […] was reduced by more than 75%. The adverse effect of calcium alginate on the endothelial cell line EA.hy 926 may result from the exchange of Ca^2+ ions from the polysaccharide matrix for monovalent Na^+ and/or K^+ ions, causing the release of large amounts of Ca^2+ ions into the culture medium. This in turn may adversely affect the endothelial cells. […]

| Substance | cytotoxic effect of peptides (MTT test) | cytotoxicity at the highest tested concentration (MTT) (EA.h 926 cells, 10 mM peptide) |
| --- | --- | --- |
| H-(Hyp)6-OH [Peptide 4] | No cytotoxic effect |  |
| H-(Hyp)9-OH [Peptide 5] | No cytotoxic effect |  |
| H-(Pro)6-OH [Peptide 2] | No cytotoxic effect |  |
| H-(Pro)9-OH [Peptide 3] | No cytotoxic effect | comparable toxicity to that at 100 μM |
| H-G[Hyp]PA[Hyp]P-OH (SMILES C[C@H](NC(=O)[C@@H]1CCCN1C(=O)[C@@H]1C[C@@H](O)CN1C(=O)CN)C(=O)N1C[C@H](O)C[C@H]1C(=O)N1CCC[C@H]1C(=O)O) [Peptide 1, model collagen fragment, reference compound] | No cytotoxic effect |  |

Source: paper PMC7412561, “Conjugates of Chitosan and Calcium Alginate with Oligoproline and Oligohydroxyproline Derivatives for Potential Use in Regenerative Medicine” (Materials, 2020)
